Assay results as given in patent US20100166727A1, “S-Adenosylmethionine And Methylthioadensosine In Chemoprevention And Treatment Of Colon Polyps And Cancer” (UNIVERSITY OF SOUTHERN CALIFORNIA, priority 2007, published 2010).

What was measured:
[1] = target: MAT II (Rattus norvegicus, UniProt P18298); details: cited from earlier work
[2] = tested on: MAT2A; test: MAT2A mRNA levels by real-time PCR in HT-29 cells; format: cell-based, human; details: for MAT2A expression: 6 hr treatment, HT-29 cells
Procedure: (§1) HT-29 and RKO cells were obtained from the Cell Culture Core of the USC Liver Disease Research Center and grown according to instructions provided by the American Type Culture Collection (ATCC, Rockville, Md.). Prior to treatment with growth factors, SAMe or MTA, medium was changed to 0.1% FBS overnight.
RNA interference (RNAi) experiments were performed using Lipofectamine RNAiMax (Invitrogen) according to the manufacturer's instructions. Small interfering RNA (siRNA) oligonucleotides for MAT2A and scrambled siRNA were synthesized by the USC Norris Comprehensive Cancer Center Microchemical Core Laboratory, and annealed to form duplexes. Stealth RNAi for MAT2A and Stealth RNAi negative control duplexes were synthesized by Invitrogen (Carlsbad, Calif.). The following siRNA sequences were used: si-MAT2A #1, 5′-[…]-3′ (sense) and 5′-[…]-3′ (antisense); si-control with scrambled sequence (negative control siRNA having no perfect matches to known human genes), 5′-[…]dTdT-3′ (sense) and 5% […]dTdT-3′ (antisense); stealth RNAi-MAT2A #5, 5′-[…]-3′ (sense) and 5′-[…]-3′ (antisense). […]
(§2) Total RNA was isolated by the EZgeno total RNA isolation kit (Genemega, San Giego, Calif.), and subjected to reverse transcription (RT) by using M-MLV Reverse transcriptase (Invitrogen). 2 μl of RT product was subjected to quantitative real-time PCR analysis. The primers and TaqMan probes for MAT2A, MAT2β and Universal PCR Master Mix were purchased from ABI (Foster City, Calif.). Hypoxanthine phosphoribosyl-transferase 1 (HPRT1) and ubiquitin C (UBC) were used as housekeeping genes (48). The thermal profile consisted of 1 cycle at 95° C. for 15 minutes followed by 40 cycles at 95° C. for 15 seconds and at 60° C. for 1 minute. The expression of MAT2A and MAT2β was checked by normalizing the Ct of MAT2A and MAT2β to that of the control housekeeping gene (HPRT1 or UBC) (49). The delta Ct obtained was used to find the relative expression of MAT genes according to the formula: Relative expression=2·^ΔCt, where ΔCt=ΔCt of MAT genes in colon cancer or treated cells—ΔCt of MAT genes in normal colon or control cells.

[3] = tested on: HT-29 cells; test: Cellular SAMe and MTA levels in HT-29 cells; format: cell-based, human
Procedure: as §1
Cellular SAMe and MTA levels were measured (51) and polyamine levels were determined (52).

[4] = Stability of SAMe and MTA in culture medium without cells and in water; format: physicochemical; details: culture medium at 37° C., linear regression
Procedure: FIG. 12. […] SAMe (A) and MTA (B) levels were measured in culture medium without cells with starting SAMe concentrations ranging from 1 to 5 mM and MTA concentration at 1 mM.
To test whether the mitogens-induce increase in. MAT2A is to provide increased SAMe necessary for polyamine synthesis in growing cells, SAMe and polyamine levels were measured following treatment of HT-29 cells with mitogens.

[5] = tested on: c-FLIP; test: c-FLIP expression and caspase 8 activation in RKO cells; format: cell-based, human; details: 6 hrs, with concomitant caspase 8 activation
Procedure: FIG. 27. […] RKO cells were treated with SAMe (0.25-5 mM) or MTA (0.25-2 mM) for 6 hrs and c-FLIP isoform mRNA levels were measured using real-time PCR (A) and protein levels of c-FLIP and caspase 8 by Western blots (B).

[6] = tested on: human GSS promoter; test: Human GSS promoter activity in HT-29 cells; format: cell-based; details: SAMe or MTA treatment as for MAT2A promoter
Excerpt: The human MAT2A promoter construct[…] and GSS promoter construct −1686/−46-LUC were previously described (33, 34, 50), and subcloned in the sense orientation upstream of the luciferase coding sequence of the pGL-3 enhancer vector (Promega). Both promoter constructs contain maximal promoter activity. Specificity of SAMe and MTA on promoter activity was examined by transfecting HT-29 cells with the GSS promoter construct and treating cells with SAMe or MTA as above.

[7] = tested on: MAT2A; test: Intestinal MAT2A expression in mice given SAMe or MTA in drinking water; format: in vivo
Procedure: FIG. 30. Effects of oral SAMe and MTA on colonic mRNA levels of MAT2A, MAT2 β, and cFLIPL. Mice were fed SAMe (150 to 450 mg/kg/d) or MTA (75 or 150 mg/kg/d) in drinking water for 6 days. Colonic mucosa was scrapped off and gene expression measured by real-time PCR.
Three-month old male C57/B6 mice were fed ad libitum a standard diet (Harland Tekiad irradiated mouse diet 7912, Madison, Wis.), caged individually and had free access to water supplemented with SAMe ([…]), MTA (75 mg/kg/d), phosphate buffered saline (vehicle for SAMe) or DMSO (0.2%, vehicle for MTA) for 6 days. SAMe and MTA were made fresh daily. The amount of water intake, body weight, and animal behavior were closely monitored. After 6 days, animals were sacrificed, intestine was cut open along the longitudinal axis, and mucosa was stripped from the intestine (46). Mucosa was weighed and a portion processed for SAMe measurement as described below, the rest snap frozen for subsequent RNA extraction.
as §2

[8] = tested on: ornithine decarboxylase (ODC); test: ODC expression by real-time PCR in HT-29 cells; format: cell-based, human; details: 6 hrs
[9] = tested on: cFLIPL; test: Colonic cFLIPL mRNA in mice fed SAMe or MTA; format: in vivo; details: oral, 6 days
Procedure: FIG. 30. Effects of oral SAMe and MTA on colonic mRNA levels of MAT2A, MAT2 β, and […]. Mice were fed SAMe (150 to 450 mg/kg/d) or MTA (75 or 150 mg/kg/d) in drinking water for 6 days. Colonic mucosa was scrapped off and gene expression measured by real-time PCR.

[10] = 75 mg/kg/d in drinking water, six days
[11] = 150 mg/kg/d in drinking water, six days

Sequence of MAT II (P18298 whole entry): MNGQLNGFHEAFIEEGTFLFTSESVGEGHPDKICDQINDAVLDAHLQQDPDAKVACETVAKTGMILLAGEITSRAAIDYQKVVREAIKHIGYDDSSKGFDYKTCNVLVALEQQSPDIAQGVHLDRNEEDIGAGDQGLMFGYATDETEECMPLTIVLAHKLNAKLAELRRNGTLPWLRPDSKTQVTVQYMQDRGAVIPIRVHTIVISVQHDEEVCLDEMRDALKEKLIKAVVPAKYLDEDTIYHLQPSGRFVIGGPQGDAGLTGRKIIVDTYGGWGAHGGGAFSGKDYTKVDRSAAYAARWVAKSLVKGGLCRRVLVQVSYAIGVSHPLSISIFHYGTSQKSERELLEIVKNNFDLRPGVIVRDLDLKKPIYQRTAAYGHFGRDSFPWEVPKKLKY
Sequence of MAT II (Q5U2R0 whole entry partner): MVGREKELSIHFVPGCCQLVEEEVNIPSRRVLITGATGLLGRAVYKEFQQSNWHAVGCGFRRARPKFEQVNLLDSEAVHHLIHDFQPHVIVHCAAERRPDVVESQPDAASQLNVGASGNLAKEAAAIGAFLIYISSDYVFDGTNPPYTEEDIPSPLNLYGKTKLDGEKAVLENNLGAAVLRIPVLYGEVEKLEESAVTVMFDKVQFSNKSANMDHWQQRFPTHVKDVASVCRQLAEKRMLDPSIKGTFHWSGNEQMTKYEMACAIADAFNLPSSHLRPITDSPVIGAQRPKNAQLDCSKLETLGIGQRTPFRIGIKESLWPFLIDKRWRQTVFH

C[S+](CC[C@H](N)C(=O)O)C[C@H]1O[C@@H](n2cnc3c(N)ncnc32)[C@H](O)[C@@H]1O (stereo partly shown) [SAMe, S-adenosylmethionine]
Inhibition by SAMe ([1]; MAT II): Yes | IC50 ([1]; read-out: IC50, inhibition of MAT II): 60 µM | MAT2A expression ([2]; 0.5 mM SAMe): 81 % baseline | MAT2A expression ([2]; 1 mM SAMe): 65 % baseline | MAT2A expression ([2]; 2 mM SAMe): 55 % baseline | MAT2A expression ([2]; 5 mM SAMe): 38 % of baseline | reduction of baseline expression of MAT2A ([2]; SAMe 5 mM or MTA 1 mM, 6 hrs, HT29 cells): 60% | IGF-1-mediated induction of MAT2A on co-treatment ([2]; co-treatment 3 hrs): blunted the IGF-1-mediated induction of MAT2A | leptin- or EGF-induced MAT2A expression on co-treatment ([2]; co-treatment with leptin (6 hrs) or EGF (3 hrs)): prevented the ability of these growth factors to induce MAT2A | increase of intracellular MTA levels after SAMe treatment ([3]; 5 mM SAMe for 16 hrs): 19 fold | intracellular MTA levels after SAMe treatment ([3]; 5 mM SAMe for 16 hrs): 1,906% | MTA level ([3]; 6 hrs, SAMe 2 mM): 0.192 ± 0.036 nmol/mg protein | SAMe level ([3]; 6 hrs, SAMe 2 mM): 1.44 ± 0.13 nmol/mg protein | MTA level ([3]; 6 hrs, SAMe 5 mM): 0.354 ± 0.096 nmol/mg protein | SAMe level ([3]; 6 hrs, SAMe 5 mM): 2.19 ± 0.21 nmol/mg protein | MTA level ([3]; 16 hrs, SAMe 2 mM): 0.261 ± 0.035 nmol/mg protein | SAMe level ([3]; 16 hrs, SAMe 2 mM): 1.28 ± 0.01 nmol/mg protein | MTA level ([3]; 16 hrs, SAMe 5 mM): 0.934 ± 0.105 nmol/mg protein | SAMe level ([3]; 16 hrs, SAMe 5 mM): 1.83 ± 0.01 nmol/mg protein | rate of conversion from SAMe to MTA [4]: 0.013 mM per hour per mM SAMe | c-FLIP expression [5]: lowered c-FLIP expression | human GSS promoter activity [6]: no influence on the human GSS promoter activity | MAT2A expression, colon [7, 10]: 128 ± 20 % of control MAT2A mRNA levels | MAT2A expression, proximal small intestine [7, 10]: 99 ± 2 % of control MAT2A mRNA levels | MAT2A expression, colon [7, 11]: 85 ± 10 % of control MAT2A mRNA levels | MAT2A expression, proximal small intestine [7, 11]: 81 ± 4 % of control MAT2A mRNA levels | decrease of MAT2A expression in proximal small intestine ([7]; SAMe 150 mg/kg/d, MTA 75 mg/kg/d, six days): 20% | inhibition in colonic MAT2A mRNA level ([7]; SAMe 450 mg/kg/d (highest dose), 6 days): 75% | ODC expression ([8]; SAMe 2 mM): 1.1 ± 0.07 fold of control | ODC expression ([8]; SAMe 5 mM): 0.8 ± 0.04 fold of control | cFLIPL expression [9]: inhibited cFLIPL expression
